Measured values: patent US20190225650A1, “PEPTIDOMIMETIC MACROCYCLES AND USE THEREOF IN REGULATING HIF1ALPHA” (AILERON THERAPEUTICS, INC., priority 2013, published 2019)
Bridge positions count the residues as written; N and C are the ends. Square brackets hold non-standard residues; d marks the D form. Peptide text beside a SMILES is read from it. R8 = C=CCCCCCC[C@@](C)(N)C(=O)O; S5 = C=CCCC[C@](C)(N)C(=O)O; Nle = CCCC[C@H](N)C(=O)O

What was measured:
[1] = target: T1, flag-tagged HIF1α (AA 786-826) / His6-tagged p300 (AA 323-423) complex (Homo sapiens, UniProt Q09472); assay: HIF1α p300 displacement assay (TR FRET, +CHAPS); format: binding; settings: read-out: IC50 (nM) (HIF1α_p300 Displacement + CHAPS)
T1 construct: His6-tagged p300 (AA 323-423); made in house; host or cells: E. coli (pETDuet vector)
Outline: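 In this TR-FRET displacement format, peptides compete HIF1α C-terminal transactivation domain off p300-CH. They were preincubated 1 h at room temperature with 300 nM complex in HEPES pH 7.4/NaCl buffer with 7.5 mM CHAPS and 1 mM DTT. Anti-His-D2 (4 nM) and anti-Flag-K (0.5 μM) followed for 2 h, and a one-site fit of the fluorescence ratio gave IC50.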

HRE-bla ME-180 cells [2] = assay: Reporter gene assay (HRE-bla ME-180 HIF reporter, GeneBLAzer); format: cell-based, human; settings: for EC50: 24 hour normoxia
Outline: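 A FRET β-lactamase readout of HIF transcription was used. After compound treatment in 0.3% DMSO/media under normoxic conditions, 20 μl of 6× LiveBLAzer-FRET B/G (CCF4-AM) substrate was added. Plates sat 3 hr at room temperature in the dark and were read at 409 Ex/460Em and 409Ex/530Em on a Synergy 2. Inhibition was compared against DMSO vehicle controls, with chetomin as positive control.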

HRE-bla ME-180 cells [3] = assay: Cell proliferation assay (viability, MTT, 1% FBS); format: cell-based, human
Outline: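 Viable cell number was measured with the CellTiter 96 (MTT) kit after compounds were applied for a 16 h normoxic (21% O2) pretreatment, followed by further normoxic or hypoxic (1% O2) culture. Cells: 2×10^4 ME-180 per well, Opti-MEM + 1% FBS, 0.5% DMSO vehicle.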

IC50 [1] [nM]	EC50 (HRE-bla ME-180 cells [2]) [µM]	SMILES	18 h Avg % max inhibition at top conc (HIF Rptr-24 hrs normoxia) (μM) (HRE-bla ME-180 cells [2])	Viability 1% FBS AVG (MTT V3-24 hr Normoxia) (μM) (HRE-bla ME-180 cells [3])
≤ 200	> 30	CCCC[C@H](NC(=O)[C@H](CCC(=O)O)NC(=O)[C@@H](NC(=O)[C@]1(C)CCCC=CCCC[C@](C)(NC(=O)[C@@H](NC(=O)[C@H](CCC(=O)O)NC(=O)[C@H](CCC(=O)O)NC(=O)[C@H](CC(=O)O)NC(=O)[C@@H](NC(=O)[C@H](CC(N)=O)NC(=O)[C@@H](NC(=O)[C@]2(C)CCCC=CCCCCCC[C@@](C)(NC(=O)[C@H](CCC(=O)O)NC(=O)CNC(=O)[C@H](CCC(N)=O)NC(=O)[C@H](CC(C)C)NC(=O)[C@H](CC(C)C)NC(C)=O)C(=O)N[C@@H](CC(C)C)C(=O)N[C@@H](CC(C)C)C(=O)N[C@@H](CCCNC(=N)N)C(=O)N[C@@H](C)C(=O)N[C@@H](CC(C)C)C(=O)N[C@@H](CC(=O)O)C(=O)N2)C(C)C)[C@@H](C)CC)C(C)C)C(=O)N[C@@H](CCCC)C(=O)N[C@@H](CO)C(=O)N[C@@H](CC(C)C)C(=O)N1)[C@@H](C)CC)C(=O)NCC(N)=O [SP-305] (Ac-LLQGE[R8]LLRALD[S5]VNIDEEV[S5][Nle]SL[S5]IE[Nle]G-NH2; staple 6-13, 21-25)	++++ (≥50: ++++)	++++ (≥30: ++++)
≤ 200	> 30	CCCC[C@H](NC(=O)[C@H](CC(C)C)NC(=O)[C@@H](NC(=O)[C@H](CCC(=O)O)NC(=O)[C@H](CCC(=O)O)NC(=O)[C@H](CC(=O)O)NC(=O)[C@@H](NC(=O)[C@H](CC(N)=O)NC(=O)[C@@H](NC(=O)[C@H](CCC(N)=O)NC(=O)[C@H](CC(=O)O)NC(=O)[C@H](CC(C)C)NC(=O)[C@H](C)NC(=O)[C@H](CCCNC(=N)N)NC(=O)[C@]1(C)CCCC=CCCC[C@](C)(NC(=O)[C@H](CCC(N)=O)NC(=O)[C@H](CC(C)C)NC(=O)[C@H](CC(C)C)NC(C)=O)C(=O)N[C@@H](CCC(=O)O)C(=O)N[C@@H](CCC(=O)O)C(=O)N[C@@H](CC(C)C)C(=O)N1)C(C)C)[C@@H](C)CC)C(C)C)C(=O)N[C@@]1(C)CCCC=CCCC[C@@](C)(C(=O)N[C@@H](CCCC)C(=O)NCC(N)=O)NC(=O)[C@H]([C@@H](C)CC)NC(=O)[C@H](C(C)C)NC(=O)[C@H](CC(C)C)NC1=O [SP-306] (Ac-LLQ[S5]EEL[S5]RALDQVNIDEEVL[Nle][S5]LVI[S5][Nle]G-NH2; staple 4-8, 23-27)	+++ (≤25 but <50: +++)	++++ (≥30: ++++)
> 700	> 30	CCCC[C@H](NC(=O)[C@H](CC(C)C)NC(=O)[C@@H](NC(=O)[C@H](CCC(=O)O)NC(=O)[C@H](CCC(=O)O)NC(=O)[C@H](CC(=O)O)NC(=O)[C@@H](NC(=O)[C@H](CC(N)=O)NC(=O)[C@@H](NC(=O)[C@H](CCC(N)=O)NC(=O)[C@H](CC(=O)O)NC(=O)[C@H](CC(C)C)NC(=O)[C@]1(C)CCCC=CCCC[C@](C)(NC(=O)[C@H](CCC(=O)O)NC(=O)CNC(=O)[C@H](CCC(N)=O)NC(=O)[C@H](CC(C)C)NC(=O)[C@H](CC(C)C)NC(C)=O)C(=O)N[C@@H](CC(C)C)C(=O)N[C@@H](CC(C)C)C(=O)N[C@@H](CCCNC(=N)N)C(=O)N1)C(C)C)[C@@H](C)CC)C(C)C)C(=O)N[C@@]1(C)CCCC=CCCC[C@@](C)(C(=O)N[C@@H](CCCC)C(=O)NCC(N)=O)NC(=O)[C@H]([C@@H](C)CC)NC(=O)[C@H](C(C)C)NC(=O)[C@H](CC(C)C)NC1=O [SP-307] (Ac-LLQGE[S5]LLR[S5]LDQVNIDEEVL[Nle][S5]LVI[S5][Nle]G-NH2; staple 6-10, 23-27)	+++ (≤25 but <50: +++)	++++ (≥30: ++++)
200 to 400	15 to 30	CCCC[C@H](NC(=O)[C@H](CC(C)C)NC(=O)[C@@H](NC(=O)[C@H](CCC(=O)O)NC(=O)[C@H](CCC(=O)O)NC(=O)[C@H](CC(=O)O)NC(=O)[C@@H](NC(=O)[C@H](CC(N)=O)NC(=O)[C@@H](NC(=O)[C@H](CCC(N)=O)NC(=O)[C@]1(C)CCCC=CCCC[C@](C)(NC(=O)[C@H](CC(C)C)NC(=O)[C@H](CCC(=O)O)NC(=O)[C@H](CCC(=O)O)NC(=O)CNC(=O)[C@H](CCC(N)=O)NC(=O)[C@H](CC(C)C)NC(=O)[C@H](CC(C)C)NC(C)=O)C(=O)N[C@@H](CCCNC(=N)N)C(=O)N[C@@H](C)C(=O)N[C@@H](CC(C)C)C(=O)N1)C(C)C)[C@@H](C)CC)C(C)C)C(=O)N[C@@]1(C)CCCC=CCCC[C@@](C)(C(=O)N[C@@H](CCCC)C(=O)NCC(N)=O)NC(=O)[C@H]([C@@H](C)CC)NC(=O)[C@H](C(C)C)NC(=O)[C@H](CC(C)C)NC1=O [SP-308] (Ac-LLQGEEL[S5]RAL[S5]QVNIDEEVL[Nle][S5]LVI[S5][Nle]G-NH2; staple 8-12, 23-27)	++++ (≥50: ++++)	++++ (≥30: ++++)
200 to 400	> 30	CCCC[C@H](NC(=O)[C@H](CC(C)C)NC(=O)[C@@H](NC(=O)[C@H](CCC(=O)O)NC(=O)[C@H](CCC(=O)O)NC(=O)[C@H](CC(=O)O)NC(=O)[C@@H](NC(=O)[C@H](CC(N)=O)NC(=O)[C@@H](NC(=O)[C@]1(C)CCCC=CCCCCCC[C@@](C)(NC(=O)[C@H](CCC(=O)O)NC(=O)CNC(=O)[C@H](CCC(N)=O)NC(=O)[C@H](CC(C)C)NC(=O)[C@H](CC(C)C)NC(C)=O)C(=O)N[C@@H](CC(C)C)C(=O)N[C@@H](CC(C)C)C(=O)N[C@@H](CCCNC(=N)N)C(=O)N[C@@H](C)C(=O)N[C@@H](CC(C)C)C(=O)N[C@@H](CC(=O)O)C(=O)N1)C(C)C)[C@@H](C)CC)C(C)C)C(=O)N[C@@]1(C)CCCC=CCCC[C@@](C)(C(=O)N[C@@H](CCCC)C(=O)NCC(N)=O)NC(=O)[C@H]([C@@H](C)CC)NC(=O)[C@H](C(C)C)NC(=O)[C@H](CC(C)C)NC1=O [SP-309] (Ac-LLQGE[R8]LLRALD[S5]VNIDEEVL[Nle][S5]LVI[S5][Nle]G-NH2; staple 6-13, 23-27)	+ (<10: +)	++++ (≥30: ++++)
400 to 700	> 30	CCCC[C@H](NC(=O)[C@H](CCC(=O)O)NC(=O)[C@]1(C)CCCC=CCCCCCC[C@@](C)(NC(=O)[C@H](CCC(=O)O)NC(=O)[C@H](CC(=O)O)NC(=O)[C@@H](NC(=O)[C@H](CC(N)=O)NC(=O)[C@@H](NC(=O)[C@H](CCC(N)=O)NC(=O)[C@H](CC(=O)O)NC(=O)[C@H](CC(C)C)NC(=O)[C@H](C)NC(=O)[C@H](CCCNC(=N)N)NC(=O)[C@]2(C)CCCC=CCCC[C@](C)(NC(=O)[C@H](CCC(N)=O)NC(=O)[C@H](CC(C)C)NC(=O)[C@H](CC(C)C)NC(C)=O)C(=O)N[C@@H](CCC(=O)O)C(=O)N[C@@H](CCC(=O)O)C(=O)N[C@@H](CC(C)C)C(=O)N2)C(C)C)[C@@H](C)CC)C(=O)N[C@@H](C(C)C)C(=O)N[C@@H](CC(C)C)C(=O)N[C@@H](CCCC)C(=O)N[C@@H](CO)C(=O)N[C@@H](CC(C)C)C(=O)N[C@@H](C(C)C)C(=O)N1)C(=O)NCC(N)=O [SP-310] (Ac-LLQ[S5]EEL[S5]RALDQVNIDE[R8]VL[Nle]SLV[S5]E[Nle]G-NH2; staple 4-8, 19-26)	+ (<10: +)	++++ (≥30: ++++)
> 700	> 30	CCCC[C@H](NC(=O)[C@H](CCC(=O)O)NC(=O)[C@]1(C)CCCC=CCCCCCC[C@@](C)(NC(=O)[C@H](CCC(=O)O)NC(=O)[C@H](CC(=O)O)NC(=O)[C@@H](NC(=O)[C@H](CC(N)=O)NC(=O)[C@@H](NC(=O)[C@H](CCC(N)=O)NC(=O)[C@H](CC(=O)O)NC(=O)[C@H](CC(C)C)NC(=O)[C@]2(C)CCCC=CCCC[C@](C)(NC(=O)[C@H](CCC(=O)O)NC(=O)CNC(=O)[C@H](CCC(N)=O)NC(=O)[C@H](CC(C)C)NC(=O)[C@H](CC(C)C)NC(C)=O)C(=O)N[C@@H](CC(C)C)C(=O)N[C@@H](CC(C)C)C(=O)N[C@@H](CCCNC(=N)N)C(=O)N2)C(C)C)[C@@H](C)CC)C(=O)N[C@@H](C(C)C)C(=O)N[C@@H](CC(C)C)C(=O)N[C@@H](CCCC)C(=O)N[C@@H](CO)C(=O)N[C@@H](CC(C)C)C(=O)N[C@@H](C(C)C)C(=O)N1)C(=O)NCC(N)=O [SP-311] (Ac-LLQGE[S5]LLR[S5]LDQVNIDE[R8]VL[Nle]SLV[S5]E[Nle]G-NH2; staple 6-10, 19-26)	++ (≤10 but <25: ++)	++++ (≥30: ++++)
